Structures can show the parent of a compound that is named as a salt. Where two headings read alike, the source gives them in different places.
Columns and labels:
[1] = Dilution analysis of sample containing LSD metabolite, CEDIA; assay type: binding; details: for LSD ng/ml CEDIA: LSD equivalents
Experimental: (§1) In the following experiment, the results of the CEDIA® are compared with those of the DPC assay, and with those obtained using the Abuscreen® radioimmunoassay by Roche. While the amount of metabolite in the sample is not known in absolute terms, the behavior is tested by dilution analysis. Results are given in terms of LSD equivalents.

[2] = Dilution analysis of sample containing LSD metabolite, DPC RIA; assay type: binding; details: LSD equivalents
Experimental: as §1

[3] = Dilution analysis of sample containing LSD metabolite, Abuscreen RIA (Roche); assay type: binding; details: LSD equivalents
Experimental: as §1

monoclonal antibody 19A7 = assay type: binding, mice
Experimental: Cross-reactivity was tested by spiking various potential cross-reactants into human urine containing a preservative.

[4] = Urine time course after LSD administration, GC/MS; assay type: in vivo; details: human
Experimental: In this example, experiments were performed to better define the time course of excretion of LSD metabolites in urine, and the ability of various immunoassays to detect them.
Individuals were administered LSD, and urine samples were collected over a four-day period. The samples were assayed using the LSD enzyme-complementation immunoassay described in Examples 9 and 10 using monoclonal antibody 19A7. The samples were also measured using the DPC radioimmunoassay (“Coat-A-Count”® LSD assay, by Diagnostic Products Company) according to manufacturer's directions, and by GC/MS).
Results are shown in the following table in terms of LSD equivalents (translating the signal generated using a standard curve obtained with known concentrations of LSD).

central nervous system = details: hallucinations, distortions in sensory perception, mood changes; cited from earlier work
[5] = in man; calculated; cited from earlier work
[6] = sample containing the metabolite, essentially free of LSD parent by GC/MS, undiluted
[7] = Concentration Added 0.5 ng/ml, 100 × observed dose / concentration added
[8] = Concentration Added 0.5 ng/ml, in human urine
[9] = Concentration Added 50,000 ng/ml, 100 × observed dose / concentration added
[10] = Concentration Added 50,000 ng/ml, in human urine
[11] = Concentration Added 500,000 ng/ml, 100 × observed dose / concentration added
[12] = Concentration Added 500,000 ng/ml, in human urine

In the case of `CCN(CC)C(=O)[C@@H]1C=C2c3cccc4c3C(O)(C[C@H]2N(C)C1)C(=O)N4` (some centres unmarked) [LSD Metabolite], the “recognition of the metabolite by reagents of the invention relative to the Abuscreen assay” value ([1]; CEDIA versus Abuscreen RIA) was “about 2.5 fold”, the “recognition of the metabolite by reagents of the invention relative to the DPC assay” value ([1]; CEDIA versus DPC RIA) was “about 10 fold” and the “LSD ng/ml CEDIA” value ([1]; metabolite sample diluted 1:3) was 0.50 ng/mL. The “LSD ng/ml CEDIA” value [1, 6] was 1.32 ng/mL, the “LSD ng/ml DPC RIA” value ([2]; metabolite sample diluted 1:3) was 0.03 ng/mL and the “LSD ng/ml DPC RIA” value [2, 6] was 0.14 ng/mL. The “LSD ng/ml Abuscreen RIA” value ([3]; metabolite sample diluted 1:3) was 0.23 ng/mL and the “LSD ng/ml Abuscreen RIA” value [3, 6] was 0.62 ng/mL.

With `CCN(CC)C(=O)[C@@H]1C=C2c3cccc4[nH]cc(c34)C[C@H]2N(C)C1` [LSD, lysergic acid diethylamide] the “% Cross-Reactivity” value (monoclonal antibody 19A7; [7]) was 100.00%, the “Concentration Observed” value (monoclonal antibody 19A7; [8]) was 0.5 ng/mL and the concentration at 4 h ([4]; urine sample JS U3, 4 hrs after LSD administration) was 0.39 ng/mL. It also gave a concentration at 6 h ([4]; urine sample JS U4, 6 hrs after LSD administration) of 0.37 ng/mL, a concentration at 8 h ([4]; urine sample JS U5, 8 hrs after LSD administration) of 0.38 ng/mL and a concentration at 10 h ([4]; urine sample JS U6, 10 hrs after LSD administration) of 0.64 ng/mL. For the same compound, the concentration at 12 h ([4]; urine sample JS U7, 12 hrs after LSD administration) was 0.52 ng/mL, the concentration at 24 h ([4]; urine sample JS U8, 24 hrs after LSD administration) was 0.34 ng/mL and the concentration at 36 h ([4]; urine sample JS U9, 36 hrs after LSD administration) was 0.03 ng/mL. For the same compound, the concentration at 48 h ([4]; urine sample JS U10, 48 hrs after LSD administration) was 0.01 ng/mL, the concentration at 60 h ([4]; urine sample JS U11, 60 hrs after LSD administration) was 0 ng/mL and the concentration at 72 h ([4]; urine sample JS U12, 72 hrs after LSD administration) was 0.02 ng/mL. The concentration at 84 h ([4]; urine sample JS U13, 84 hrs after LSD administration) was 0 µg/mL, the concentration at 98 h ([4]; urine sample JS U14, 98 hrs after LSD administration) was 0 µg/mL and the concentration at 2 h ([4]; urine sample SW U2, 2 hrs after LSD administration) was 0.33 ng/mL. It also gave a concentration at 4 h ([4]; urine sample SW U3, 4 hrs after LSD administration) of 0.54 ng/mL, a concentration at 8 h ([4]; urine sample SW U4, 8 hrs after LSD administration) of 0.52 ng/mL and a concentration at 8 h ([4]; urine sample SW U5, 8 hrs after LSD administration) of 0.71 ng/mL. For the same compound, the concentration at 10 h ([4]; urine sample SW U6, 10 hrs after LSD administration) was 0.76 ng/mL, the concentration at 12 h ([4]; urine sample SW U7, 12 hrs after LSD administration) was 1.77 ng/mL and the concentration at 24 h ([4]; urine sample SW U8, 24 hrs after LSD administration) was 1.42 ng/mL. It also gave a concentration at 36 h ([4]; urine sample SW U9, 36 hrs after LSD administration) of 0.11 ng/mL, a concentration at 48 h ([4]; urine sample SW U10, 48 hrs after LSD administration) of 0.04 ng/mL and a concentration at 60 h ([4]; urine sample SW U11, 60 hrs after LSD administration) of 0.02 ng/mL. The concentration at 72 h ([4]; urine sample SW U12, 72 hrs after LSD administration) was 0 ng/mL, the concentration at 96 h ([4]; urine sample SW U14, 96 hrs after LSD administration) was 0.01 ng/mL and the “Oral doses that can cause central nervous system disturbances (as low as)” value (central nervous system) was 25 µg. For the same compound, the plasma half-life [5] was “about 3 hours”.

With `N[C@@H](Cc1cc(I)c(Oc2cc(I)c(O)c(I)c2)c(I)c1)C(=O)O` [Levothyroxine (T4), Levothyroxine] the “% Cross-Reactivity” value (monoclonal antibody 19A7; [9]) was under 0.0001% and the “Concentration Observed” value (monoclonal antibody 19A7; [10]) was 0.0 ng/mL.

For `CN1C[C@H](C(=O)O)C=C2c3cccc4[nH]cc(c34)C[C@H]21` [Lysergic Acid], the “% Cross-Reactivity” value (monoclonal antibody 19A7) was 0.00000% and the “Concentration Observed” value (monoclonal antibody 19A7) was “≦0.01 ng/mL”.

In the case of `CN1C[C@H](CO)C=C2c3cccc4[nH]cc(c34)C[C@H]21` [Lysergol], the “% Cross-Reactivity” value (monoclonal antibody 19A7; Concentration Added 5,000 ng/ml, 100 × observed dose / concentration added) was 0.00034% and the “Concentration Observed” value (monoclonal antibody 19A7; Concentration Added 5,000 ng/ml, in human urine) was 0.01 ng/mL.

For `CN[C@@H](C)Cc1ccccc1` [Methamphetamine], the “% Cross-Reactivity” value (monoclonal antibody 19A7; Concentration Added 200000 ng/mL, 100 × observed dose / concentration added) was 0.00019% and the “Concentration Observed” value (monoclonal antibody 19A7; Concentration Added 200000 ng/mL, in human urine) was 0.45 ng/mL.

With `CC[C@@H](CO)NC(=O)[C@@H]1C=C2c3cccc4c3c(cn4C)C[C@H]2N(C)C1` [Methysergide Maleate] the “% Cross-Reactivity” value (monoclonal antibody 19A7; [9]) was 0.00147% and the “Concentration Observed” value (monoclonal antibody 19A7; [10]) was 0.74 ng/mL.

With `CN1CC[C@]23c4c5ccc(O)c4O[C@H]2[C@@H](O)C=C[C@H]3[C@H]1C5` [Morphine] the “% Cross-Reactivity” value (monoclonal antibody 19A7) was under 0.00001% and the “Concentration Observed” value (monoclonal antibody 19A7) was 0.0 ng/mL.

For `c1ccc(C2(N3CCCCC3)CCCCC2)cc1` [Phencyclidine], the “% Cross-Reactivity” value (monoclonal antibody 19A7; [11]) was 0.00002% and the “Concentration Observed” value (monoclonal antibody 19A7; [12]) was 0.11 ng/mL.

In the case of `CN(C)CCc1c[nH]c2cccc(O)c12` [Psilocyn], the “% Cross-Reactivity” value (monoclonal antibody 19A7; Concentration Added 10,000 ng/ml, 100 × observed dose / concentration added) was 0.00000% and the “Concentration Observed” value (monoclonal antibody 19A7; Concentration Added 10,000 ng/ml, in human urine) was “≦0.01 ng/mL”.

With `C=CCC1(C(C)CCC)C(=O)NC(=O)NC1=O` (centres unmarked) [Secobarbital] the “% Cross-Reactivity” value (monoclonal antibody 19A7; [11]) was under 0.00001% and the “Concentration Observed” value (monoclonal antibody 19A7; [12]) was 0.0 ng/mL.

For `NCCc1c[nH]c2ccc(O)cc12` [Seretonine], the “% Cross-Reactivity” value (monoclonal antibody 19A7; Concentration Added 1,000,000 ng/ml, 100 × observed dose / concentration added) was 0.00000% and the “Concentration Observed” value (monoclonal antibody 19A7; Concentration Added 1,000,000 ng/ml, in human urine) was “≦0.01 ng/mL”.

With `Cc1ccc(C(=O)c2ccc(CC(=O)O)n2C)cc1` [Tolmetin] the “% Cross-Reactivity” value (monoclonal antibody 19A7; [11]) was under 0.00001% and the “Concentration Observed” value (monoclonal antibody 19A7; [12]) was 0.0 ng/mL.

For `N[C@@H](Cc1c[nH]c2ccccc12)C(=O)O` [Tryptophan], the “% Cross-Reactivity” value (monoclonal antibody 19A7; Concentration Added 100,000 ng/ml, 100 × observed dose / concentration added) was 0.00000% and the “Concentration Observed” value (monoclonal antibody 19A7; Concentration Added 100,000 ng/ml, in human urine) was “≦0.01 ng/mL”.

For `CCCN(C)C(=O)[C@@H]1C=C2c3cccc4[nH]cc(c34)C[C@H]2N(C)C1` [d-LAMPA, Lysergic acid methyl-propyl amide], the “% Cross-Reactivity” value (monoclonal antibody 19A7; [7]) was 58.7% and the “Concentration Observed” value (monoclonal antibody 19A7; [8]) was 0.29 ng/mL.

Source: patent US20020192703A1, “Immunoassay reagents and methods for determination of LSD and LSD metabolites” (priority 1995, published 2002)
